Assay [1] deals with Tcf4^+/− mice. Nature of the assay: Social interaction / sociability (time sniffing a novel mouse). The format is in vivo. The arrangement: key to Sociability: Tukey’s Multiple Comparison Test Summary: **** = p < 0.00001; ns = not significant. As to the method:
(§1) In vivo behavioral studies were conducted in Tcf4^+/− mutant and wildtype littermate control (WT) mice by Gen.DDI (Santiago, Chile). Littermate controls consist of the genotypes Tcf4^+/+. All Tcf4 mutant mice used were heterozygous for the Tcf4 mutation because homozygous mutations of Tcf4 result in embryonic to postnatal day 1 lethality. Ten mice per treatment group, 14 weeks of age, were used for behavioral experiments. Experiments were conducted in line with the requirements of the UK Animals (Scientific Procedures) Act, 1986. The mice were housed in plastic cages (35×30×12 cm), 5 in each and habituated to the animal facilities for at least a week before commencing the test. The room temperature (21° C.±2° C.), relative humidity (55%±5%), a 12-hour light-dark cycle (lights on 7 AM to 7 PM), and air exchange were automatically controlled. The animals had free access to commercial food pellets and water. Testing was performed during the light phase of the circadian cycle, with the order of testing being determined by the principle of conducting the most stressful tests last. Assays were designed to reproduce and expand on the original behavioral characterization of Tcf4^+/− mice. Tcf4^+/− and WT control mice were treated for 6 weeks prior to testing and tested 30 minutes following a dose of cG-2-AllylP, as described in Table 2 below.
Social recognition and social memory in humans are very important. People with PTHS show lower amounts of social recognition and memory compared with people without PTHS. […] Therefore, to determine if NNZ-2591 (cG-2-AllylP) could be effective in normalizing this condition, we carried out a series of studies in mice, in which we determined the amount of time that mice spent sniffing a novel mouse.
To carry out these studies, mice were evaluated by the amount of time spent sniffing a novel mouse upon repeated exposures, to induce familiarity, and reinstatement of high levels of sniffing when a novel stimulus animal is introduced. We measured the number of bouts of sniffing in each of the groups of animals. The time spent sniffing a novel mouse is shown on the vertical axis and the animals and treatments are shown on the horizontal axis.

Assay [2] has as its system Tcf4^+/− mice. Nature of the assay: Tcf4^+/− mouse model of Pitt Hopkins Syndrome, all tested behaviors (summary). The class given is in vivo. On the procedure:
Several genetically manipulated rodent models of PTHS have been created (Thaxton et al, 2018; Sweatt, 2013). These models share a common basis around heterozygous Tcf4 (Tcf4^+/−). Haploinsufficient mice (Tcf4^+/−) have been characterized as a model system for PTHS (Kennedy et al, 2016).
as §1

Here are results for 1 compound from patent US12472177B2, “Bicyclic compounds and methods for their use in treating Pitt Hopkins syndrome” (NEUREN PHARMACEUTICALS LIMITED, priority 2019, dated 2025).

For `C=CC[C@]12CCCN1C(=O)CNC2=O` [cG-2-AllylP, (8aS)-Allyl-hexahydropyrrolo[1,2-a]pyrazine-1,4-dione], the “Sociability: Tukey’s Multiple Comparison Test Summary” value is given as “ns” with Tcf4^+/− mice [1] (Tcf4^+/− + cG-02-AllylP (100 mg/kg) vs Tcf4^+/− + cG-2-AllylP (200 mg/kg)); “ns” with Tcf4^+/− mice [1] (Tcf4^+/− + cG-2-AllylP (100 mg/kg) vs WT + cG-2-AllylP (200 mg/kg)); “**** (**** = p < 0.0001)” in the assay with Tcf4^+/− mice [1] (Tcf4^+/− + vehicle vs Tcf4^+/− + cG-2-AllylP (100 mg/kg)); “**** (**** = p < 0.0001)” in the assay with Tcf4^+/− mice [1] (Tcf4^+/− + vehicle vs Tcf4^+/− + cG-2-AllylP (200 mg/kg)); “**** (**** = p < 0.0001)” with Tcf4^+/− mice [1] (Tcf4^+/− + vehicle vs WT + cG-2-AllylP (100 mg/kg)); “**** (**** = p < 0.0001)” in the assay with Tcf4^+/− mice [1] (Tcf4^+/− + vehicle vs WT + cG-2-AllylP (200 mg/kg)). For the same compound, the “Sociability: Tukey’s Multiple Comparison Test Summary” value in the assay with Tcf4^+/− mice [1] (WT + cG-2-AllylP (100 mg/kg) vs Tcf4^+/− + cG-2-AllylP (100 mg/kg)), with Tcf4^+/− mice [1] (WT + cG-2-AllylP (100 mg/kg) vs Tcf4^+/− + cG-2-AllylP (200 mg/kg)), with Tcf4^+/− mice [1] (WT + cG-2-AllylP (100 mg/kg) vs WT + cG-2-AllylP (200 mg/kg)), with Tcf4^+/− mice [1] (WT + cG-2-AllylP (200 mg/kg) vs Tcf4^+/− + cG-2-AllylP (200 mg/kg)), in the assay on Tcf4^+/− mice [1] (WT + vehicle vs Tcf4^+/− + cG-2-AllylP (100 mg/kg)) and in the assay with Tcf4^+/− mice [1] (WT + vehicle vs Tcf4^+/− + cG-2-AllylP (200 mg/kg)) was “ns” in each case. Further, the “Sociability: Tukey’s Multiple Comparison Test Summary” value in the assay on Tcf4^+/− mice [1] (WT + vehicle vs WT + cG-2-AllylP (100 mg/kg)) was “ns”. Also, the “Behavior Normalized to WildType Levels: Sociability” value in the assay on Tcf4^+/− mice [1] (Tcf4^+/− mice, 100 mg/kg) was “✓”; in the assay with Tcf4^+/− mice [1] (Tcf4^+/− mice, 200 mg/kg) it was “✓”. In addition, the “Time spent sniffing a novel mouse” value is “substantial and statistically significant increases” with Tcf4^+/− mice [1] (Tcf4^+/− mice, 100 mg/kg oral BID 6 weeks, compared to Tcf4^+/− mice treated with vehicle only); “substantial and statistically significant increases” with Tcf4^+/− mice [1] (Tcf4^+/− mice, 200 mg/kg oral BID 6 weeks, compared to Tcf4^+/− mice treated with vehicle only); “nearly identical times” in the assay on Tcf4^+/− mice [1] (WT mice, 100 mg/kg oral BID 6 weeks); “nearly identical times” in the assay on Tcf4^+/− mice [1] (WT mice, 200 mg/kg oral BID 6 weeks). Besides, the “Rescue of tested behaviors of the PTHS phenotype” value in the assay with Tcf4^+/− mice [2] (Tcf4^+/− mice, 100 mg/kg for 6 weeks) was “rescued all tested behaviors, except for fear conditioning”; with Tcf4^+/− mice [2] (Tcf4^+/− mice, 200 mg/kg for 6 weeks) it was “rescued all tested behaviors of the PTHS phenotype”. For the same compound, the “Rescue of the phenotype of the Tcf4^+/− knockout mouse model” value with Tcf4^+/− mice [2] (Tcf4^+/− mice, oral administration for 6 weeks) is “can rescue the phenotype”. Also, the “Impact on wild type control mice” value with Tcf4^+/− mice [2] (WT mice, oral administration for 6 weeks) is given as “no impact”.
